Measured values as given in US5278171A, “Azadecalin amides and thioamides as inhibitors of cholesterol biosynthesis” (Merrell Dow Pharmaceuticals Inc., priority 1991, dated 1994).

Assays:
[1] = system: Oxidosqualene Cyclase in HepG2 Cells; test: Inhibition of Oxidosqualene Cyclase in HepG2 Cells (IC50 for the inhibition of [14C]cholesterol biosynthesis); assay type: cell-based; settings: Homo sapiens, read-out: IC50 HepG2 Cell
Description: 1. Inhibition of Oxidosqualene Cyclase in HepG2 Cells (IC50)
HepG2 cells, obtained from American Type Culture Collection, are seeded into plastic 6-well multiwell dishes and grown to 60-70% confluency in an atmosphere of 5%CO2 at 37° C. using Minimal Essential Media supplemented with 10% fetal bovine serum as culture media. The cells are washed and the media is replaced with one containing 10% lipoprotein-deficient serum instead of 10% fetal bovine serum. Twenty-four hours later the test compound is added to the culture media in ethanol to obtain concentrations of between 0 and 100 μM. One hour after the addition of the test compound, 2.0 μC of [^14 C]acetate is added to each well and the cells are allowed to incubate for an additional 2-3 hours. The cells are then harvested and extracted for analysis of ^14 C-labeled cholesterol, squalene monoepoxide and squalene diepoxide. These metabolites are separated and identified by a combination of high performance liquid chromatography and flow-through liquid scintillation spectroscopy. An IC50 for the inhibition of [^14 C]cholesterol biosynthesis is calculated based on the radioactivity in controls and treated cells.

[2] = system: Oxidosqualene cyclase; test: Inhibition of Purified Oxidosqualene Cyclase (I10); assay type: biochemical; settings: purified oxidosqualene cyclase from rat liver microsomes, 10 μM [3H]squalene monoepoxide, pH 7.4, 37° C., 40 minutes
Description: Oxidosqualene cyclase is purified from rat liver microsomes by the sequential methods of: 1) solubilization with the detergent lauryl maltoside and 2) FPLC anion-exchange chromatography. Compounds are tested to determine their ability to inhibit the conversion of squalene monoepoxide to lanosterol catalyzed by the purified oxidosqualene cyclase. The reaction mixture (final volume, 200 μl) contains potassium phosphate buffer (50 mM, pH 7.4), Na2 EDTA (500 μM), Tween 80 (0.1%), [^3 H]squalene monoepoxide (10 μM of the racemic mixture, 50 μCi/μmol), test compound (10 μM) and purified oxidosqualene cyclase (50μg). The reagents, prior to mixing are equilibrated at 37° C. for 10 minutes. The reaction is initiated by adding enzyme. The mixture is incubated for 40 minutes with shaking in a water bath. The reaction is terminated by the addition of 5 ml of CHCl3 /MeOH (2:1, v/v), 0.8 ml of water and 10 μg each of squalene monoepoxide, squalene diepoxide, lanosterol and cholesterol. The organic layer is isolated and evaporated to dryness under nitrogen. […] Radioactivity is quantitated using an in-line scintillation counter.

Row | IC50 [1] | I10 purified enzyme (percent inhibition of oxidosqualene cyclase activity at 10 μM test compound) [2] | Compound
1 | 52 µM | 100% | CC(C)CCSCCCCC(=O)N1CC[C@H]2[C@H](C)[C@@H](O)CC[C@]2(C)C1 (relative stereo) [Example 100905, N-[1-Oxo-5-(3-methylbutylmercapto)pentyl]-8-aza-4α,10-dimethyl-trans-decal-3β-ol]
2 | 0.7 µM |  | CCCCCCCCCCCC(=O)N1CC[C@H]2[C@H](C)[C@@H](O)CC[C@]2(C)C1 (relative stereo) [Example 102417, N-(1-Oxododecyl)-8-aza-4α,10-dimethyl-trans-decal-3β-ol]
